The test system of data set [1] is Aspergillus fumigatus IFM 4942. As to the kind of experiment: Effectiveness in treatment of in vivo infections (survival of infected mice). The note with it: IFM4942; Aspergillus fumigatus IFM 4942 i.v. infection, male ICR mice; dosed orally 5x (once daily for 5 days); survival after 2 weeks. As for the experimental part: (§1) Measurement of Effectiveness in Treatment of In vivo Infections Using 10 animals per group, male ICR mice (body weight 18 to 20 g) were infected by intravenous injection of the test fungi as an aqueous suspension. The test compounds were given orally once 1 hour after infection, or once daily for 5 days starting from 1 hour after infection. After 2 weeks, the number of animals surviving was counted, and the dosage at which 50% of the animals survive (ED₅₀: mg/kg) was calculated using the Litchfield-Wilcoxon method.

Data set [2] concerns Cryptococcus neoformans TIMM 0362. Described as above. Particulars: TIMM0362; Cryptococcus neoformans TIMM 0362 i.v. infection, male ICR mice; dosed orally 1x (1 hour after infection); survival after 2 weeks. The protocol: as §1
The subject of data set [3] is Candida albicans IFM 40009. Described as above. Particulars: IFM40009, Candida albicans IFM 40009 i.v. infection, male ICR mice, survival after 2 weeks. As for the experimental part:
as §1

Data set [4] can be described thus: Repeated oral toxicity testing in monkeys. In kind it is in vivo. The note with it: for safe dosage: under these test conditions. The protocol: Compound A was given orally to monkeys every day for 28 days at dosages of 1, 3, 10 and 30 mg/kg/day, and its toxicity was studied.
As a result, at dosages of 3 mg/kg/day or more, a decrease in serum cortisol, hyperplasia and increase in lipid droplets in the zona fasciculata in the adrenal cortex, and atrophy of the seminiferous tubules of the testes were observed; at the dosage of 30 mg/kg/day, prolongation of the QTc interval in the electrocardiogram (QT period corrected for heart rate) was also observed. Under these test conditions, it was considered that 1 mg/kg/day was a safe dosage.
Compound (+)-I was given orally to monkeys every day for 28 days at dosages of 1, 3, 10 and 30 mg/kg/day, and its toxicity studied.
Under these test conditions, it was considered that 30 mg/kg/day was safe dosage.

Data set [5] in a line: Variation in the plasma concentrations in monkeys of the toxicity study. It is filed as in vivo. Particulars: repeated daily oral dosing for 28 days.
Data set [6] has as its system Aspergillus fumigatus IFM 4942. As to the kind of experiment: Measurement of Minimum Inhibitory Concentration (MIC), agar dilution. It is filed as cell-based. Particulars: SDA agar plates, 30°C. As for the experimental part:
(§2) Measurement of Minimum Inhibitory Concentration (MIC)
(§3) Yeast-type fungi were cultured in Sabouraud dextrose broth (SDB, Difco) at 30°C for 24 hours, and 10⁵ cell/ml suspension for inoculation were prepared by diluting this with sterile physiological saline. In the case of filamentous fungi, 3 to 5 ml sterile physiological saline containing 0.05% (w/v) Tween 80 were added to mature Sabouraud dextrose agar culture medium (SDA, Difco) slant cultures (cultured for 2 to 3 weeks) in which conidia had formed abundantly, and the conidia were separated using an inoculating loop (Nunc Inc.). The conidial suspensions obtained were collected using a sterile pipette, and, after filtration through a double layer of sterile gauze to remove mycelial aggregates and agar fragments, were made into suspensions for inoculation by dilution of 10⁵ conidia/ml with sterile physiological saline. Meanwhile, as regards the drug-containing agar plates, a drug concentration of 0.005 to 10 mg/ml was prepared using dimethyl sulfoxide (DMSO, Wako Junyaku), and, by adding 99 parts of SDA to 1 part of this drug solution, two-fold serial dilution agar media of final dilutions 0.05 to 100 µg/ml were prepared. The fungal suspensions for inoculation prepared by the above method were inoculated onto these agar plates using a MIT-P microplanter (Sakuma Seisakusho).
A general note: Agar dilution tests growth on a series of plates holding different concentrations.

Data set [7] concerns Cryptococcus neoformans TIMM 0362. Described as above. In kind it is cell-based. The note with it: SDA agar plates, 30°C. The protocol: as §2, §3
Data set [8] relates to Candida glabrata TIMM 1064. The data set is described as above. In kind it is cell-based. The note with it: SDA agar plates, 30°C. As for the experimental part: as §2, §3
Data set [9] deals with Candida albicans IFM 40009. The data set is described as above. The note with it: 30°C, 48 hours. It is filed as cell-based. As for the experimental part: as §2, §3
Data set [10] relates to Candida tropicalis TIMM 0313. The description is as above. Particulars: SDA agar plates, 30°C. It is filed as cell-based. As for the experimental part: as §2, §3
Data set [11] relates to Trichophyton mentagrophytes TIMM 1188. Described as above. In kind it is cell-based. Particulars: SDA agar plates, 30°C. The protocol:
as §2, §3

The mark [12] stands for this setting: dosed orally 5x (once daily for 5 days).
Where [13] appears, read: every day for 28 days, 1, 3, 10 and 30 mg/kg/day.
[14] abbreviates: Aspergillus fumigatus, IFM4942, 48 h, read-out: MIC.
Setting [15] is: Cryptococcus neoformans, TIMM0362, 48 h, read-out: MIC.
[16] abbreviates: Nakaseomyces glabratus, TIMM1064, 48 h, read-out: MIC.
The mark [17] stands for this setting: IFM40009, SDA agar plates, read-out: MIC.
The mark [18] stands for this setting: Candida tropicalis, TIMM0313, 48 h, read-out: MIC.
The mark [19] stands for this setting: Trichophyton mentagrophytes, TIMM1188, 48 h, read-out: MIC.
[20] abbreviates: dosed orally 1x (1 hour after infection).
Where [21] appears, read: every day for 28 days, up to 30 mg/kg/day.

These results are taken from patent EP0472392A2, “Optically active triazole derivatives and compositions” (priority 1990, dated 1992).

≈ marks a conversion by molar mass, not a printed value. Entries after “also recorded” stand apart in the source; their conditions may differ. Where two headings read alike, the source gives them in different places.

Usually ED50 stands for the dose at which the effect has come halfway, by size or by number of responders. Read a low ED50 as an effect at a small dose. The term MIC denotes the least concentration at which growth counts as inhibited. In the case of `OC(Cn1cncn1)(Cn1cnc(/C=C/c2ccc(OCC(F)(F)C(F)F)cc2)n1)c1ccc(F)cc1F` (racemic) [compound A, (±)-2-(2,4-difluorophenyl)-1-[3-[(E)-4-(2,2,3,3-tetrafluoropropoxy)styryl]-1H-1,2,4-triazol-1-yl]-3-(1H-1,2,4-triazol-1-yl)propan-2-ol], the ED50 came to 53.6 mg/kg in data set [1], 43.5 mg/kg in [2] and 1.7 mg/kg in data set [3] (setting [12]). In data set [4] (setting [13]), the “dosage at which a decrease in serum cortisol was observed” value was at least 3 mg/kg/day. Moreover, in [4] (setting [13]), the “dosage at which atrophy of the seminiferous tubules of the testes was observed” value is at least 3 mg/kg/day. Further, the “dosage at which hyperplasia and increase in lipid droplets in the zona fasciculata in the adrenal cortex was observed” value in data set [4] (every day for 28 days, 1, 3, 10 and 30 mg/kg/day, only slight for compound (+)-I) was at least 3 mg/kg/day. The molecule also registered a safe dosage in data set [4] (every day for 28 days) of 1 mg/kg/day. Further, the “variation in the plasma concentrations with time (accumulation)” value in data set [5] is “accumulates; also recorded: increased day-by day”. For the same molecule, the MIC stood at 12.5 µg/mL (≈ 23.2 µM) in [6] (setting [14]); 0.78 µg/mL (≈ 1.45 µM) in data set [7] (setting [15]); 1.56 µg/mL (≈ 2.9 µM) in data set [8] (setting [16]); 12.5 µg/mL (≈ 23.2 µM) in data set [9] (setting [17]); 12.5 µg/mL (≈ 23.2 µM) in [10] (setting [18]); 0.39 µg/mL (≈ 0.724 µM) in [11] (setting [19]).
Turning to `OC(Cn1cncn1)(Cn1cnc(/C=C/c2ccc(OCC(F)(F)C(F)F)cc2)n1)c1ccc(F)cc1F` (single isomer, unassigned; (+)) [Compound (+)-I, (+)-2-(2,4-difluorophenyl)-1-[3-[(E)-4-(2,2,3,3-tetrafluoropropoxy)styryl]-1H-1,2,4-triazol-1-yl]-3-(1H-1,2,4-triazol-1-yl)propan-2-ol], the ED50 in data set [1] came to 39.8 mg/kg; in data set [2], 19.7 mg/kg; in data set [3] (setting [20]) it was 2.6 mg/kg; in data set [3] (setting [12]), 1 mg/kg. Also, the “testicular toxicity (atrophy of the seminiferous tubules), finding in words” value in data set [4] (even at a dosage of 30 mg/kg/day) is reported as “did not display”. The molecule further registered a safe dosage in [4] (every day for 28 days) of 30 mg/kg/day. In addition, the “electrocardiogram / cardiotoxicity (prolongation of the QTc interval), finding in words” value in data set [4] (setting [21]) was “no abnormalities in the electrocardiogram were seen; also recorded: did not display cardiotoxicity (prolongation of the QTc interval)”. For the same molecule, in [4] (setting [21]), the “serum cortisol level (finding in words)” value is listed as “no decrease in the serum cortisol level; also recorded: did not display”. For the same molecule, the “variation in the plasma concentrations with time (accumulation)” value in data set [5] was “no day-by day increase in the plasma concentrations; also recorded: does not display accumulation”. Besides, the MIC in data set [6] (48 hours, listed as COMP. (+)I) was found to be 6.25 µg/mL (≈ 11.6 µM); in data set [7] (48 hours, listed as COMP. (+)I), 0.39 µg/mL (≈ 0.724 µM); in [8] (48 hours, listed as COMP. (+)I), 0.78 µg/mL (≈ 1.45 µM); in data set [9] (setting [17]), 12.5 µg/mL (≈ 23.2 µM); in data set [10] (48 hours, listed as COMP. (+)I) it was 12.5 µg/mL (≈ 23.2 µM); in data set [11] (48 hours, listed as COMP. (+)I), 0.10 µg/mL (≈ 0.186 µM).
For the molecule `OC(Cn1cncn1)(Cn1cnc(/C=C/c2ccc(OCC(F)(F)C(F)F)cc2)n1)c1ccc(F)cc1F` (single isomer, unassigned; (-)) [Compound (-)-I, (-)-2-(2,4-difluorophenyl)-1-[3-[(E)-4-(2,2,3,3-tetrafluoropropoxy)styryl]-1H-1,2,4-triazol-1-yl]-3-(1H-1,2,4-triazol-1-yl)propan-2-ol], the MIC in [6] (48 hours, listed as COMP. (-)I) is over 100 µg/mL; in data set [7] (48 hours, listed as COMP. (-)I), over 100 µg/mL; in data set [8] (48 hours, listed as COMP. (-)I), over 100 µg/mL; in data set [9] (SDA agar plates), 12.5 µg/mL (≈ 23.2 µM); in data set [10] (48 hours, listed as COMP. (-)I) it was over 100 µg/mL; in data set [11] (48 hours, listed as COMP. (-)I) it was 50 µg/mL (≈ 92.9 µM).
As to `OC(Cn1cncn1)(Cn1cncn1)c1ccc(F)cc1F` [FLUCONAZOLE, 2-(2,4-difluorophenyl)-1,3-bis(1H-1,2,4-triazol-1-yl)-propan-2-ol], the ED50 in data set [1] was 57.9 mg/kg; in data set [2], over 100 mg/kg; in [3] (setting [20]), over 30 mg/kg; in data set [3] (setting [12]) it was 3.6 mg/kg. For the same molecule, the MIC in data set [6] (setting [14]) was over 100 µg/mL; in data set [7] (setting [15]), 50 µg/mL (≈ 163 µM); in data set [8] (setting [16]), 100 µg/mL (≈ 327 µM); in data set [9] (setting [17]), over 100 µg/mL; in [10] (setting [18]) it was over 100 µg/mL; in data set [11] (setting [19]), 25 µg/mL (≈ 81.6 µM).
